{"source": "paper PMC9440176", "about": "“Novel benzylidene benzofuranone analogues as potential anticancer agents: design, synthesis and in vitro evaluation based on CDK2 inhibition assays” (3 Biotech, 2022)", "key": {"MCF-7": {"tested_on": "MCF-7", "assay": "MTT cytotoxicity assay on MCF-7", "type": "cell-based", "conditions": "24 h, read-out: Inhibition of cell proliferation, IC50, MCF-7", "procedure": "The monolayer cell culture was trypsinized and the cell count was adjusted to 5.0 × 10^5 cells/ml using respective media containing 10% FBS. To each well of the 96-well microtiter plate, 100 µL of the diluted cell suspension (50,000cells/well) was added. After 24 h, when a partial monolayer was formed, the supernatant was flicked off, the monolayer was then washed once again with the medium and 100 µL of different test concentrations of test drugs were added on to the partial monolayer in microtiter plates. The plates were then incubated at 37 °C for 24 h in 5% CO2 atmosphere. After incubation, the test solutions in the wells were discarded and 100 µL of MTT (5 mg/10 ml of MTT in PBS) was added to each well. The plates were then incubated for 4 h at 37 °C in 5% CO2 atmosphere. The supernatant was then removed and 100 µL of DMSO was added and the plates were gently shaken to solubilize the formed formazan. The absorbance was measured using a microtiter plate reader at a wavelength of 590 nm. The percentage growth inhibition was thus calculated using the following formula and the concentration of the test drug required to inhibit the cell growth by 50% (IC50) values is generated from the dose–response curves for each one of the cell lines (Meerloo et al. [2011]).\nThe test compounds were screened for their in vitro cytotoxicity by MTT assay against two cancer cell lines, namely MCF-7, HCT-116 and normal epithelial kidney cells (Vero). Doxorubicin was used as a reference standard."}, "CDK2/Cyclin A": {"molecular_target": "CDK2/Cyclin A (Homo sapiens, UniProt P24941)", "assay": "CDK2/cyclin A inhibitory assay, Z'-LYTE FRET kinase assay", "type": "biochemical", "conditions": "concentration of 100 micro molar; 1000 ng/ml kinase, 1000 µM ATP", "source_text": "Z’-LYTE® technology involves homogeneous assay design based on FRET and is a universal platform for both screening as well as profiling protein kinases. The assay uses a peptide substrate labeled with two different fluorophores, coumarin donor and fluorescein acceptor on each end. These two fluorophores make up a FRET pair, which allows the transfer of energy when both are present on the same molecule. The initial kinase reaction transfers the ϒ-phosphate of ATP to a tyrosine or serine/threonine residue on the substrate. In a secondary reaction, referred to as the development reaction, a site-specific protease recognizes and cleaves only non-phosphorylated peptide, while phosphorylated substrate remains uncleaved. […] Upon excitation of Coumarin at 400 nm, the FRET signal is measured as a ratio between the Coumarin donor emission at 445–460 nm and the fluorescein acceptor emission at 520–535 nm(Lebakken et al. [2007]).\nInitial ten-fold and two-fold dilutions of Kinase and ATP concentrations were used to choose the optimal Kinase and ATP concentration based on the % Phosphorylation.\nThe assay was carried out according to the kit instructions (384 well format). Briefly, 5X kinase buffer [250 mM HEPES (pH 7.5), 50 mM MgCl2, 5 mM EGTA, 0.05% BRIJ-35] was diluted to 1X using distilled water. The phosphor peptide positive control (Z’-LYTE® Tyr 4 phospho-peptide) and the non-phosphorylated negative control (Z’-LYTE® Tyr 4 peptide) were then diluted to 1:500 with 1× kinase buffer to 2 μM. […] Working development solution was then made by diluting 12 μL of the provided stock solution with 388 μL of the provided development buffer. Aliquots (20 μL) of each peptide mixture were then added to the wells of a Corning 3914 solid white microplate in replicates of 8. The development reaction was initiated by the addition of 10 μL of working development-solution to all the wells. Further, the plates were allowed to incubate at room temperature for 60 min. Reactions were then stopped by the addition of 10 μL of stop solution (Jia et al. [2008]).\nReactions were quantitated using a Tecan Robotic Microplate Reader. Reader control, blank subtraction, ratio metric calculations and finally graph plotting were carried out using Gen5™ Data Analysis Software.\nThe CDK2/Cyclin A assay was carried out as per the manufacturer’s instruction using suitable controls and standard.\nThe inhibitory assay was carried out using the stock of 10 mM in DMSO. Samples were further serially diluted to obtain concentrations of 100 μM. The concentrations were chosen based on the IC50 values obtained in the MTT assay. A total of 23 analogues were selected for the assay based on their antiproliferative activity. Further, selected compounds were screened and tested against the target CDK2/Cyclin A, and their % phosphorylation and % inhibition were recorded."}, "HCT-116 cells": {"tested_on": "HCT-116 cells", "assay": "Apoptosis detection by propidium iodide / Annexin V-FITC", "type": "cell-based, Human", "design": "FACS analysis of apoptosis detection, Viable cells / FACS analysis of apoptosis detection, Early apoptotic / FACS analysis of apoptosis detection, Late apoptotic / FACS analysis of apoptosis detection, Necrotic: unit not given here", "procedure": "The day before induction of apoptosis, 1 × 10^6cells per well were plated on a 6-well plate using respective media with 10% FBS and 1% PenStrep, incubated overnight at 37 °C at 5% CO2.The media was replaced with test solutions of different concentrations in the media containing 10% FBS. The treated cells were incubated for 24 h at normal culture conditions. The cells were further harvested and the well contents were completely transferred into the sterile FACS tubes. The cell contents were centrifuged at 2000 rpm for 5 min and the supernatant was discarded. After centrifugation, the cells were washed twice with cold PBS and then resuspended in 1 ml of binding buffer at a concentration of 1× 10^6 cells/ml. […] of the cell suspension (5× 10^5 cells) were then transferred into a fresh FACS tube (Vermes et al. [1995]). Further, cells were gently mixed with […] of propidium iodide and […] of Annexin V before being incubated for 20 minutes at room temperature in the dark. The cells were immediately analyzed by flow cytometer within a duration of an hour."}}, "data": [{"compound": "COc1ccc(/C=C2\\Oc3c(c(OC)cc(OC)c3C3=CCN(C(C)C)CC3)C2=O)cc1OC", "note": "[NISOA4]", "values": [{"measurement": "IC50", "setting": "MCF-7", "result": 35.6, "unit": "µM"}, {"measurement": "% inhibition on CDK2/cyclin A", "setting": "CDK2/Cyclin A", "result": 42.787, "unit": "%"}, {"measurement": "FACS analysis of apoptosis detection, Early apoptotic", "setting": "HCT-116 cells; 12.5 µM", "result": 6.36}, {"measurement": "FACS analysis of apoptosis detection, Late apoptotic", "setting": "HCT-116 cells; 12.5 µM", "result": 28.95}, {"measurement": "FACS analysis of apoptosis detection, Necrotic", "setting": "HCT-116 cells; 12.5 µM", "result": 9.61}, {"measurement": "FACS analysis of apoptosis detection, Viable cells", "setting": "HCT-116 cells; 12.5 µM", "result": 55.08}, {"measurement": "FACS analysis of apoptosis detection, Early apoptotic", "setting": "HCT-116 cells; 25 µM", "result": 0.17}, {"measurement": "FACS analysis of apoptosis detection, Late apoptotic", "setting": "HCT-116 cells; 25 µM", "result": 52.11}, {"measurement": "FACS analysis of apoptosis detection, Necrotic", "setting": "HCT-116 cells; 25 µM", "result": 24.06}, {"measurement": "FACS analysis of apoptosis detection, Viable cells", "setting": "HCT-116 cells; 25 µM", "result": 23.66}]}]}
